Earlier results, collected in PMC10649714, “Development and Identification of Novel α-Glucosidase Inhibitory Peptides from Mulberry Leaves” (Foods, 2023).

system: α-glucosidase (PDB ID: 5ZCE); settings: not given
Excerpt: All hydrogen bonds in this complex with a length less than 3.5 Å were considered to make a close contact, and the binding energy obtained was −8.78 kcal/mol. […] Along with other interaction forces, the binding energy was −8.75 kcal/mol. In addition, […] formed seven hydrogen bonds a ...

Molecule | binding sites with α-glucosidase
O=C(CCc1ccc(O)cc1)c1c(O)cc(O[C@@H]2O[C@H](CO)[C@@H](O)[C@H](O)[C@H]2O)cc1O [trilobatin] | ASP-60, ASP-199, HIS-203, GLN-256, and GLN-328
O=c1c(O)c(-c2ccc(O)cc2O)oc2cc(O)cc(O)c12 [morin] | ASP-60, ASP-199, HIS-203, GLN-256, and GLN-328
C[C@@H]1O[C@@H](O[C@H]2C(=O)c3c(O)cc(O)cc3O[C@@H]2c2ccc(O)c(O)c2)[C@H](O)[C@H](O)[C@H]1O [astilbin] | ASP-60, ASP-199, HIS-203, GLN-256, and GLN-328

molecular target: α-glucosidase (Saccharomyces cerevisiae, UniProt P53341); settings: Binglangjiang buffalo casein peptides
Excerpt: Bioactive peptides are composed of 2–20 amino acids. These peptides have no obvious activity in the macromolecular state but show anti-diabetes, anti-hypertension, anti-inflammation, anti-cancer, and other biological activities after degradation. Enzymatic hydrolysis is commonly employed in both research and industrial settings for the preparation of bioactive peptides due to its favorable attributes, including gentle reaction conditions and the ability to effectively regulate the reaction process. […] Although the precise chemical responsible for this benefit is unknown, the ancient Chinese medicinal book Qi Min Yao Shu referenced the effect of mulberry leaf as tr ... || To further verify the synthesis of peptides, in vitro activity tests were carried out. […] […].

α-glucosidase, sequence (P53341 whole entry, the tested form may be a part): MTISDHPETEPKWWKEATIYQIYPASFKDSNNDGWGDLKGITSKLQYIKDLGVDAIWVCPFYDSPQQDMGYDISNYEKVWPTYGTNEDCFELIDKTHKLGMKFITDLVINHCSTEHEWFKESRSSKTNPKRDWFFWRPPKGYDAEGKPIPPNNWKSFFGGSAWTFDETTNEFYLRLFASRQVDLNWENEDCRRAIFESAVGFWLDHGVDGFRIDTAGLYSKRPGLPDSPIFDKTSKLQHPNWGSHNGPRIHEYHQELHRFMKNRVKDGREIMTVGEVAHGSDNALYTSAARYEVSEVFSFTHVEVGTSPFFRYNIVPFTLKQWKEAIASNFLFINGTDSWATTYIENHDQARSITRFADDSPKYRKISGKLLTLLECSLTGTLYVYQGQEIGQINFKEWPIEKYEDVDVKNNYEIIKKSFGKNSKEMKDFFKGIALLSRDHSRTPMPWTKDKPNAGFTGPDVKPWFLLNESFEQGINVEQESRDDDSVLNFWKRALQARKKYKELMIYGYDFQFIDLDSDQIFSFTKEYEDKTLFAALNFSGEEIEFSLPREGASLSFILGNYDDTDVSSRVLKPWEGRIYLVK

Molecule | IC50 ratio of peptide to acarbose
YLGYLEQLLR [Binglangjiang buffalo casein peptide] | approximately 2.5
TKVIPYVRYL [Binglangjiang buffalo casein peptide] | approximately 2.5
FALPQYLK [Binglangjiang buffalo casein peptide] | approximately 2.5
RNAVPITPTLNR [Binglangjiang buffalo casein peptide] | approximately 2.5

same assay, conditions: Ginkgo biloba seed protein peptides

Molecule | IC50 ratio of peptide to acarbose
VPKIPPP [peptide from Ginkgo biloba seed protein] | 3.89
MPGPPSD [peptide from Ginkgo biloba seed protein] | 2.54
LSMSFPPF [peptide from Ginkgo biloba seed protein] | 1.22

same assay, conditions: in words; ref 9 (LDLQR, AGGFR, LDNFR), 11 (RVPSLM, KLPGF), ref 12 (SEDSSEVDIDLGNLG), ref 13 (TTGGKGGK), ref 14 (KETTTIVR)

Molecule | α-glucosidase inhibition in vitro
RVPSLM [egg white protein-derived peptide] | excellent
AGGFR [wheat germ peptide] | excellent
LDNFR [wheat germ peptide] | excellent
KLPGF [egg white protein-derived peptide] | excellent
KETTTIVR [spicy wood seed protein-derived peptide] | excellent
SEDSSEVDIDLGNLG [sericin-derived peptide] | excellent
LDLQR [wheat germ peptide] | excellent
TTGGKGGK [black bean protein-derived peptide] | excellent

same assay, conditions: wheat germ peptides

Molecule | IC50 ratio of peptide to acarbose
AGGFR [wheat germ peptide] | 2.54
LDNFR [wheat germ peptide] | 2.70
LDLQR [wheat germ peptide] | 2.52
